Laboratory results published in PubChem BioAssay (NCI).
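Following 48 hours of exposure in 96-well plates, responses at five concentrations were used to interpolate endpoints linearly. Abbreviation: GI50, concentration required for 50% inhibition of growth. TGI is the concentration that stops growth completely.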

Columns and labels:
Assay in all cases: NCI-60 cell line screen, 48 h
SK-MEL-28 melanoma = system: SK-MEL-28 melanoma
SK-MEL-5 melanoma = system: SK-MEL-5 melanoma
UACC-257 melanoma = system: UACC-257 melanoma
NCI/ADR-RES ovarian = system: NCI/ADR-RES ovarian
OVCAR-8 ovarian = system: OVCAR-8 ovarian
SF-539 CNS = system: SF-539 CNS
BT-549 breast = system: BT-549 breast
UO-31 renal = system: UO-31 renal
A498 renal = system: A498 renal
RPMI-8226 leukemia = system: RPMI-8226 leukemia
MDA-MB-435 = system: MDA-MB-435
OVCAR-4 ovarian = system: OVCAR-4 ovarian
SF-268 CNS = system: SF-268 CNS
COLO 205 colon = system: COLO 205 colon
SF-295 CNS = system: SF-295 CNS
CCRF-CEM leukemia = system: CCRF-CEM leukemia
HL-60(TB) leukemia = system: HL-60(TB) leukemia
HS 578T breast = system: HS 578T breast
OVCAR-5 ovarian = system: OVCAR-5 ovarian
ACHN renal = system: ACHN renal
SR leukemia = system: SR leukemia
CAKI-1 renal = system: CAKI-1 renal
OVCAR-3 ovarian = system: OVCAR-3 ovarian
SK-OV-3 ovarian = system: SK-OV-3 ovarian
786-0 renal = system: 786-0 renal
M14 melanoma = system: M14 melanoma
LOX IMVI melanoma = system: LOX IMVI melanoma
NCI-H23 lung = system: NCI-H23 lung
KM12 colon = system: KM12 colon
SNB-19 CNS = system: SNB-19 CNS
HOP-62 NSCLC = system: HOP-62 NSCLC
HCT-15 colon = system: HCT-15 colon
TK-10 renal = system: TK-10 renal
SN12C renal = system: SN12C renal
DU-145 prostate = system: DU-145 prostate
A549 NSCLC = system: A549 NSCLC
RXF 393 renal = system: RXF 393 renal
MDA-MB-231 breast = system: MDA-MB-231 breast
IGROV1 ovarian = system: IGROV1 ovarian
MOLT-4 leukemia = system: MOLT-4 leukemia
PC-3 prostate = system: PC-3 prostate
NCI-H522 lung = system: NCI-H522 lung
SK-MEL-2 melanoma = system: SK-MEL-2 melanoma
MCF7 breast = system: MCF7 breast
MALME-3M melanoma = system: MALME-3M melanoma
UACC-62 melanoma = system: UACC-62 melanoma
HT29 colon = system: HT29 colon
SNB-75 CNS = system: SNB-75 CNS
HCT-116 colon = system: HCT-116 colon
K-562 leukemia = system: K-562 leukemia
U251 CNS = system: U251 CNS
HCC-2998 colon = system: HCC-2998 colon
SW-620 colon = system: SW-620 colon
NCI-H460 lung = system: NCI-H460 lung
NCI-H226 lung = system: NCI-H226 lung
T-47D breast = system: T-47D breast

Cn1cc(C2=C(c3cn(C)c4ccc(Cl)cc34)C(=O)NC2=O)c2ccccc21
GI50 (SK-MEL-28 melanoma): 4.26 µM
TGI (SK-MEL-28 melanoma): 19.6 µM
GI50 (SK-MEL-5 melanoma): 3.47 µM
TGI (SK-MEL-5 melanoma): 8.28 µM
GI50 (UACC-257 melanoma): 5.09 µM
TGI (UACC-257 melanoma): 16.8 µM
GI50 (NCI/ADR-RES ovarian): 3.82 µM
TGI (NCI/ADR-RES ovarian): > 23 µM
GI50 (OVCAR-8 ovarian): 5.16 µM
TGI (OVCAR-8 ovarian): > 21.6 µM
GI50 (SF-539 CNS): 1.28 µM
TGI (SF-539 CNS): 4.74 µM
GI50 (BT-549 breast): 3.56 µM
TGI (BT-549 breast): 9.03 µM
GI50 (UO-31 renal): 2.54 µM
TGI (UO-31 renal): 11.7 µM
GI50 (A498 renal): 1.75 µM
TGI (A498 renal): 7.09 µM
GI50 (RPMI-8226 leukemia): 5.68 µM
TGI (RPMI-8226 leukemia): 17.2 µM
GI50 (MDA-MB-435): 0.645 µM
TGI (MDA-MB-435): 2.85 µM
GI50 (OVCAR-4 ovarian): 6 µM
TGI (OVCAR-4 ovarian): > 23.5 µM
GI50 (SF-268 CNS): 5.51 µM
TGI (SF-268 CNS): > 25 µM
GI50 (COLO 205 colon): 1.67 µM
TGI (COLO 205 colon): 7.93 µM
GI50 (SF-295 CNS): 1.6 µM
TGI (SF-295 CNS): 8.02 µM
GI50 (CCRF-CEM leukemia): 1.18 µM
TGI (CCRF-CEM leukemia): 19.2 µM
GI50 (HL-60(TB) leukemia): 1.4 µM
TGI (HL-60(TB) leukemia): 8.82 µM
GI50 (HS 578T breast): 2.11 µM
TGI (HS 578T breast): > 23.9 µM
GI50 (OVCAR-5 ovarian): 9.3 µM
TGI (OVCAR-5 ovarian): > 21.9 µM
GI50 (ACHN renal): 3.15 µM
TGI (ACHN renal): > 25 µM
GI50 (SR leukemia): 1.18 µM
TGI (SR leukemia): 16.2 µM
GI50 (CAKI-1 renal): 2.75 µM
TGI (CAKI-1 renal): > 23.7 µM
GI50 (OVCAR-3 ovarian): 1.44 µM
TGI (OVCAR-3 ovarian): 6.88 µM
GI50 (SK-OV-3 ovarian): 2.87 µM
TGI (SK-OV-3 ovarian): > 21 µM
GI50 (786-0 renal): 4.03 µM
TGI (786-0 renal): 16.9 µM
GI50 (M14 melanoma): 2.63 µM
TGI (M14 melanoma): > 24 µM
GI50 (LOX IMVI melanoma): 2.74 µM
TGI (LOX IMVI melanoma): 11.9 µM
GI50 (NCI-H23 lung): 4.64 µM
TGI (NCI-H23 lung): 14.6 µM
GI50 (KM12 colon): 2.38 µM
TGI (KM12 colon): 10.4 µM
GI50 (SNB-19 CNS): 8.33 µM
TGI (SNB-19 CNS): > 25 µM
GI50 (HOP-62 NSCLC): 3.79 µM
TGI (HOP-62 NSCLC): 17.8 µM
GI50 (HCT-15 colon): 1.35 µM
TGI (HCT-15 colon): > 25 µM
GI50 (TK-10 renal): 5.55 µM
TGI (TK-10 renal): 23 µM
GI50 (SN12C renal): 3.87 µM
TGI (SN12C renal): 15.7 µM
GI50 (DU-145 prostate): 8.45 µM
TGI (DU-145 prostate): > 25 µM
GI50 (A549 NSCLC): 2.12 µM
TGI (A549 NSCLC): 16.8 µM
GI50 (RXF 393 renal): 3.19 µM
TGI (RXF 393 renal): 7.76 µM
GI50 (MDA-MB-231 breast): 6.69 µM
TGI (MDA-MB-231 breast): > 25 µM
GI50 (IGROV1 ovarian): 6.51 µM
TGI (IGROV1 ovarian): > 21.7 µM
GI50 (MOLT-4 leukemia): 2.17 µM
TGI (MOLT-4 leukemia): 14.9 µM
GI50 (PC-3 prostate): 3.88 µM
TGI (PC-3 prostate): > 23.2 µM
GI50 (NCI-H522 lung): 1.34 µM
TGI (NCI-H522 lung): 10.5 µM
GI50 (SK-MEL-2 melanoma): 1.68 µM
TGI (SK-MEL-2 melanoma): 6.65 µM
GI50 (MCF7 breast): 1.25 µM
TGI (MCF7 breast): > 25 µM
GI50 (MALME-3M melanoma): 6.33 µM
TGI (MALME-3M melanoma): 19 µM
GI50 (UACC-62 melanoma): 2.42 µM
TGI (UACC-62 melanoma): 8.36 µM
GI50 (HT29 colon): 1.23 µM
TGI (HT29 colon): 8.38 µM
GI50 (SNB-75 CNS): 0.709 µM
TGI (SNB-75 CNS): > 17.3 µM
GI50 (HCT-116 colon): 1.52 µM
TGI (HCT-116 colon): 7.42 µM
GI50 (K-562 leukemia): 1.35 µM
TGI (K-562 leukemia): > 25 µM
GI50 (U251 CNS): 2.21 µM
TGI (U251 CNS): 14 µM
GI50 (HCC-2998 colon): 6.76 µM
TGI (HCC-2998 colon): > 23.9 µM
GI50 (SW-620 colon): 1.38 µM
TGI (SW-620 colon): > 25 µM
GI50 (NCI-H460 lung): 3.25 µM
TGI (NCI-H460 lung): 8.9 µM
GI50 (NCI-H226 lung): 4.56 µM
TGI (NCI-H226 lung): 17.4 µM
GI50 (T-47D breast): 3.84 µM
TGI (T-47D breast): 13 µM
